Reference: patent publication US20210177732A1, “COMBINATION OF EXTRACTS OF QUINQUINA AND OF LEONTOPODIUM ALPINUM AND OF THE MANGANESE SALT OF L-PYRROLIDONE CARBOXYLIC ACID IN THE TREATMENT OF ALOPECIA” (PIERRE FABRE DERMO-COSMETIQUE, priority 2018, published 2021)

B1: Wnt3a: positive control, Wnt3a protein at 10 nM (protein, UniProt P56704 19-352, looked up)
Protein Wnt-3a: SYPIWWSLAVGPQYSSLGSQPILCASIPGLVPKQLRFCRNYVEIMPSVAEGIKIGIQECQHQFRGRRWNCTTVHDSLAIFGPVLDKATRESAFVHAIASAGVAFAVTRSCAEGTAAICGCSSRHQGSPGKGWKWGGCSEDIEFGGMVSREFADARENRPDARSAMNRHNNEAGRQAIASHMHLKCKCHGLSGSCEVKTCWWSQPDFRAIGDFLKDKYDSASEMVVEKHRESRGWVETLRPRYTYFKVPTERDLVYYEASPNFCEPNPETGSFGTRDRTCNVSSHGIDGCDLLCCGRGHNARAERRREKCRCVFHWCCYVSCQECTRVYDVHTCK

Tested on: Wnt/β-catenin pathway
Experiment: Activation of the Wnt/β-catenin pathway, TCF/LEF luciferase reporter in dermal papilla cells derived from human hair follicles
Format: cell-based
Conditions: human follicular dermal papilla cells, 24 h incubation, Wnt3a 10 nM, Mn-PCA 500 μM, edelweiss 30 μg/mL; for Average RLU (luminescence due to luciferase expression): average of 3 donors (6 experiments), cinchona 10 μg/mL, combination at same concentrations, control 410.2; for activation of the Wnt-β-catenin pathway versus control: combination 10 μg/mL + 500 μM + 30 μg/mL
Method: The aim of this study is to evaluate the effects of the combination of an extract of cinchona, manganese salt of L-pyrrolidone carboxylic acid and an extract of Leontopodium alpinum on the activation of the Wnt/β-catenin pathway on dermal papilla cells derived from human hair follicles.
The studies are carried out on human cells derived from the dermal papillae of the follicles of three donors. The cells are inoculated in 96-well plates and cultured for 24 h with the necessary supplements. The cells are incubated with specific reagents in order to be transfected with a lentivirus (expressing the luciferase gene under the control of the Wnt/β-catenin promoter (TCF/LEF transcriptional response element). The transfected cells are incubated for 24 hours with the products to be tested, i.e. either with an extract of cinchona (10 μg/ml) diluted in DMSO, or with the manganese salt of L-pyrrolidone carboxylic acid (500 μM) diluted in water, or with an extract of Leontopodium alpinum (30 μg/ml) also diluted in water, or with the combination of the three compounds at the same concentrations as above. The cinchona used in this study is harvested in Ecuador, in the forests of Echeandia. The extract of Leontopodium alpinum tested in this study comes from a variety called Leontopodium alpinum Helvetia. The extract tested corresponds to the commercial material Alpaflor® from the supplier DSM. The manganese salt of L-pyrrolidone carboxylic acid tested in this study corresponds to the commercial material Mangalidone® from the supplier Solabia. It is obtained by cyclisation of glutamic acid of plant origin. Its INCI name is manganese PCA and its CAS number is 29193-02-2. A positive control (Wnt3a protein at 10 nM) is also tested. Activation of the Wnt/β-catenin pathway is highlighted by the quantification of luminescence due to luciferase expression.
A statistical analysis is performed, an intergroup comparison is made by a repeated measures ANOVA followed by Dunnett's post-test on the raw data.

| Molecule | Average RLU (luminescence due to luciferase expression) [RLU] | activation of the Wnt-β-catenin pathway versus control |
| --- | --- | --- |
| O=C1CC[C@@H](C(=O)[O-])N1.O=C1CC[C@@H](C(=O)[O-])N1.[Mn+2] [Mn-PCA (L), manganese salt of L-pyrrolidone carboxylic acid] | 735.2 | +77±17% |
| B1 | 2366.9 | +451±93% |
